{"source": "patent US20050124554A1", "about": "“Spermidine derivatives for the treatment of chronic neurodegenerative diseases” (priority 2002, published 2005)", "key": {"[1]": {"tested_on": "acute hippocampal slices (CA1 pyramidal cell layer, Schaffer collateral stimulation)", "assay": "Electrophysiology: evoked field responses / synaptic transmission", "set-up": "species or system Sprague-Dawley rats", "text": "All animal procedures to produce acute hippocampal slices were approved by the Home Office. Male, 250 g, Sprague-Dawley rats were deeply anaesthetised with halothane and decapitated. The brain was quickly removed, and the hippocampi dissected out and then cut into 300 μm thick transverse slices on a vibratome (Leica, Milton Keynes, UK) in cold cutting solution (in mM: 189 sucrose, 2.5 KCl, 26 NaHCO3, 1.2 NaH2PO4, 10 glucose, 5 MgCl2, 0.1 CaCl2) equilibrated with 5% CO2, 95% O2. Slices were transferred to aCSF (in mM: 10 glucose, 125 NaCl, 5 KCl, 26 NaHCO3, 1 MgCl2, 1.25 NaH2PO4, 2 CaCl2, 10 sucrose) at room temperature, bubbled with 5% CO2 and 95% O2, for at least 1 h before use.\nSlices were then transferred to a submerged perfusion chamber (2 ml volume) for the electrophysiological recordings and were perfused at 10 ml min^−1 at 25° C. with aCSF equilibrated with 5% CO2 and 95% O2, and allowed to equilibrate for 1 h before manipulations were started. Experimental compounds were applied by bath perfusion. L-Arg3,4 was applied at 300 μM and DNQX was applied at 10 μM final concentration. DNQX was diluted from a 40 mM stock in DMSO (final DMSO of 0.025%). The Schaffer collaterals of CA3 were stimulated at voltages from 0 to 30 V with a constant voltage stimulator (Digitimer, Hertfordshire, UK) via a twisted pair stimulating electrode of polyimide coated stainless steel wire (Plastics One, Roanoke, Va.). Field potential responses were recorded with an Axopatch 200B amplifier (Axon Instruments, Foster City, Calif.) in the fast current clamp mode via a 2M KCl filled glass electrode (2-5 MQ) in the CA1 pyramidal cell layer. Responses were filtered at 2 kHz, digitised at 20 kHz with a Digidata 1320A (Axon Instruments), and stored onto hard disk with Clampex 8.1 software (Axon Instruments) running on a Dell Pentium III PC. Data was analysed in Clampfit 8.1 (Axon Instruments).\nStimulus-response (S/R) curves were generated from stimuli from 0 to 30 V in 2 V increments. Bath perfusion of 300 μM L-Arg3,4 in aCSF was applied for 10 min with a sub-maximal stimulus applied every minute to monitor synaptic transmission. A second S/R curve was generated before the perfusion was switched back to plain aCSF. A sub-maximal stimulus was applied every minute during the 15 min wash period after which a third SIR curve was generated. Perfusion of 10 μM DNQX was then started until the response to the sub-maximal stimulus was completely eliminated which always occurred within 10 min. […] In Clampfit, S/R curves were fit to a sigmoidal function of the form: [formula] where R is the magnitude of the evoked response, Rmax is the maximum response, V50 is the voltage which produces a half maximal response, S is the stimulus voltage, and m is proportional to the slope of the linear region of the sigmoid. Data was compared by one way ANOVA."}, "[2]": {"tested_on": "superoxide production in organotypic slice cultures (CA1 pyramidal cell layer)", "assay": "Superoxide production monitored fluorescently with hydroethidine (HEt)", "type": "cell-based, Wistar rat", "method": "Hydroethidine (HEt) has been utilised to fluorescently monitor the production of superoxide in primary neuronal cultures [Bindokas et al., (1996), Carriedo et al. (1998)]. A stock solution of HEt was made was made in N2 sparged DMSO (10 mg ml^−1) which was then aliquoted and stored at −80° C. aliquots were used only once before being discarded. Two separate experimental paradigms were employed to test the effect of L-Arg3,4 on superoxide production in response to either AMPA or NMDA stimulation.\nFor the AMA experiments, organotypic slice cultures were loaded with 1 μg ml^−1 HEt in HEPES buffered salt solution (HSS) (in mM): glucose 10, NaCl 144, KCl 5, HEPES 10, MgCl2 1, CaCl2 2, pH 7.4, for 30 minutes in the dark. All subsequent solutions contained HEt to prevent a decrease in signal due to reporter depletion. Images were acquired once per minute for the duration of the experiment on the same system as described above for assessment of cell death. A 10 minute record of baseline superoxide production was produced before the bathing solution was exchanged for HBSS+BEt containing 10 μM AMPA, again for 10 minutes. As shown previously, stimulation of glutamate receptors with AMPA lead to an increase in superoxide production [Bindokas et al., (1996), Carriedo et al. (1998)]. The bathing solution was then exchanged for HBSS+HEt containing both 10 μM AMPA and 300 μM L-Arg3,4 for 10 minutes to test the effect of L-Arg3,4 on superoxide production. In separate control experiments, 300 μM L-Arg3,4 in HSS was incubated with slices to determine if it affected baseline superoxide production on its own.\nAcquired images from the AMPA experiments were then analysed with the OpenLab image analysis package. A region of interest was drawn around the CA1 pyramidal cell layer because this was the cell layer that produced the largest increase in fluorescence in response to AMPA activation. In each image, within the region of interest, the average pixel value was calculated in arbitrary units (AU) to produce a record of fluorescence intensity values over time. A linear regression was then performed on the data to calculate the rate of superoxide production as change in intensity over time (arbitrary units per minute, AU min^−1) for each of the treatments. Data is presented as mean±s.d. Rates of superoxide production were then compared by ANOVA followed by post-hoc comparisons with Bonferroni corrections with significance indicated as * for P<0.05 and ** for P<0.01."}, "[3]": {"conditions": "during bath perfusion of 300 μM, n=6"}}, "data": [{"smiles": "N=C(N)NCCCC(N)C(=O)NCCCNCCCCN", "note": "[L-Arg3,4, L-arginyl-3,4-spermidine]", "values": [{"measurement": "effect on evoked responses", "setting": "[1]; bath application, L-Arg3,4 300 μM, DNQX 10 μM", "result": "had no effect on evoked responses"}, {"measurement": "Rmax (maximum evoked response, S/R curve fit)", "setting": "[1]; [3]", "result": "2.71 ± 1.31", "unit": "mV"}, {"measurement": "V50 (voltage producing half maximal response)", "setting": "[1]; [3]", "result": "15.98 ± 5.12", "unit": "V"}, {"measurement": "m (proportional to slope of sigmoid)", "setting": "[1]; [3]", "result": "0.59 ± 0.48"}, {"measurement": "rate of baseline superoxide production", "setting": "[2]; 300 μM compound alone, no AMPA", "result": "2.55±2.02", "unit": "AU min^−1"}, {"measurement": "rate of superoxide production", "setting": "[2]; 300 μM compound in continued presence of 10 μM AMPA", "result": "5.07±1.94", "unit": "AU min-d"}]}]}
